We go through 28 molecules from patent publication US20260274895A1, “DE NOVO DESIGNED MEMBRANE-TRAVERSING AND ORALLY BIOAVAILABLE MACROCYCLES” (UNIVERSITY OF WASHINGTON, priority 2022, published 2026).

Where a SMILES comes first, the peptide text is derived from it. [ ]: non-standard residue; d: D form. NMeF = CN[C@@H](Cc1ccccc1)C(=O)O; dNMeF = CN[C@H](Cc1ccccc1)C(=O)O; NMeL = CN[C@@H](CC(C)C)C(=O)O; dNMeL = CN[C@H](CC(C)C)C(=O)O; dNMeV = CN[C@@H](C(=O)O)C(C)C; NMeV = CN[C@H](C(=O)O)C(C)C; NMeA = CN[C@@H](C)C(=O)O; dNMeA = CN[C@H](C)C(=O)O; Aib = CC(C)(N)C(=O)O

The conditions of this data set: for PAMPA_Papp_Avg (apparent permeability): PAMPA. On the technique in general: In PAMPA a lipid-coated filter parts donor from acceptor wells.

With `CC(C)[C@@H]1C(=O)N[C@@H](Cc2ccccc2)C(=O)N2CCC[C@H]2C(=O)N(C)[C@H](Cc2ccccc2)C(=O)N[C@H](C)C(=O)N2CCC[C@H]2C(=O)N1C` (single isomer, unassigned) [Design D6.8.p2, *faP*vFP], the “PAMPA_Papp_Avg (apparent permeability)” value came out at 1.77 ×10⁻⁶ cm/s.

As for `CC(C)C[C@H]1C(=O)N2CCC[C@@H]2C(=O)N[C@@H](Cc2ccccc2)C(=O)N2CCC[C@H]2C(=O)N[C@H](C(C)C)C(=O)N[C@H](Cc2ccccc2)C(=O)N1C` (single isomer, unassigned) [Design D6.9.p2, vf*LpFP], the “PAMPA_Papp_Avg (apparent permeability)” value was found to be 6.77 ×10⁻⁶ cm/s.

On to `CC(C)C[C@@H]1C(=O)N(C)[C@@H](CC(C)C)C(=O)N2CCC[C@@H]2C(=O)N[C@H](CC(C)C)C(=O)N[C@H](C)C(=O)N2CCC[C@@H]2C(=O)N2CCC[C@H]2C(=O)N[C@@H](C)C(=O)N[C@H](Cc2ccccc2)C(=O)N[C@H](CC(C)C)C(=O)N[C@@H](C(C)C)C(=O)N1C` (single isomer, unassigned) [Design D11.9.p1, V*l*LplapPAfl], for which the “PAMPA_Papp_Avg (apparent permeability)” value came to 0.879 ×10⁻⁶ cm/s. As for `CC(C)C[C@@H]1C(=O)N(C)[C@@H](CC(C)C)C(=O)N2CCC[C@@H]2C(=O)N[C@H](CC(C)C)C(=O)N[C@H](C)C(=O)N2CCC[C@@H]2C(=O)N2CCC[C@H]2C(=O)N[C@@H](C)C(=O)N[C@H](Cc2ccccc2)C(=O)N[C@H](CC(C)C)C(=O)N[C@@H](C(C)C)C(=O)N1C` (single isomer, unassigned) [Design D11.9.p2, V*l*LplapPAfl], the “PAMPA_Papp_Avg (apparent permeability)” value stood at 2.09 ×10⁻⁶ cm/s. With `CC[C@@H](C)[C@H]1NC(=O)[C@@H](Cc2ccccc2)NC(=O)[C@@H]2CCCN2C(=O)[C@@H]([C@H](C)CC)NC(=O)[C@@H](Cc2ccccc2)NC(=O)[C@@H]2CCCN2C1=O` [Design D6.1, iPfiPf] (cyclo(P[dF][dI]P[dF][dI])), the “PAMPA_Papp_Avg (apparent permeability)” value amounted to 3.34 ×10⁻⁶ cm/s. Take `CC[C@@H](C)[C@H]1NC(=O)[C@@H](Cc2ccccc2)N(C)C(=O)[C@@H]2CCCN2C(=O)[C@@H]([C@H](C)CC)NC(=O)[C@@H](Cc2ccccc2)N(C)C(=O)[C@@H]2CCCN2C1=O` [Design D6.2, iP*fiP*f] (cyclo(P[dNMeF][dI]P[dNMeF][dI])): the “PAMPA_Papp_Avg (apparent permeability)” value is 12.2 ×10⁻⁶ cm/s. The same measure, in the same setting: as for `CC(C)C[C@H]1NC(=O)[C@@H]2CCCN2C(=O)[C@@H]2CCCN2C(=O)[C@@H](C)NC(=O)[C@@H](Cc2ccccc2)NC(=O)[C@H]2CCCN2C1=O` [Design D6.3, pfaPpl] (cyclo(PP[dL][dP][dF][dA])), the figure is 1.99 ×10⁻⁶ cm/s; as for `CC(C)C[C@H]1NC(=O)[C@@H]2CCCN2C(=O)[C@@H]2CCCN2C(=O)[C@@H](C)NC(=O)[C@@H](Cc2ccccc2)N(C)C(=O)[C@H]2CCCN2C1=O` [Design D6.4, p*faPPl] (cyclo(PP[dL][dP][dNMeF][dA])), 13.9 ×10⁻⁶ cm/s. Take `CC(C)[C@@H]1NC(=O)[C@@H]2CCCN2C(=O)[C@@H]2CCCN2C(=O)[C@@H](Cc2ccccc2)NC(=O)[C@@H]2CCCN2C(=O)[C@@H](Cc2ccccc2)NC1=O` [Design D6.5, PPVfPf] (cyclo(PPV[dF]P[dF])): the “PAMPA_Papp_Avg (apparent permeability)” value was determined as 2.41 ×10⁻⁶ cm/s. Regarding `CC(C)[C@H]1C(=O)N[C@H](Cc2ccccc2)C(=O)N2CCC[C@H]2C(=O)N[C@H](Cc2ccccc2)C(=O)N2CCC[C@H]2C(=O)N2CCC[C@H]2C(=O)N1C` [Design D6.6, PP*VfPf] (cyclo([NMeV][dF]P[dF]PP)), the “PAMPA_Papp_Avg (apparent permeability)” value came to 3.64 ×10⁻⁶ cm/s. With `CC(C)[C@H]1NC(=O)[C@@H]2CCCN2C(=O)[C@@H](C)NC(=O)[C@@H](Cc2ccccc2)NC(=O)[C@@H]2CCCN2C(=O)[C@H](Cc2ccccc2)NC1=O` [Design D6.7, faPvFP] (cyclo(FP[dF][dA]P[dV])), the “PAMPA_Papp_Avg (apparent permeability)” value is 0.424 ×10⁻⁶ cm/s. As for `CC(C)C[C@H]1C(=O)N2CCC[C@@H]2C(=O)N[C@@H](Cc2ccccc2)C(=O)N2CCC[C@H]2C(=O)N(C)[C@H](C(C)C)C(=O)N[C@H](Cc2ccccc2)C(=O)N1C` [Design D6.10, *vf*LpFP] (cyclo(FP[dNMeV][dF][NMeL][dP])), the “PAMPA_Papp_Avg (apparent permeability)” value came out at 11.6 ×10⁻⁶ cm/s. For `CC[C@H](C)[C@@H]1NC(=O)[C@H]2CCCN2C(=O)[C@@H]2CCCN2C(=O)[C@H](CC(C)C)NC(=O)[C@@H](C(C)C)NC(=O)[C@@H](CC(C)C)N(C)C(=O)[C@@H]2CCCN2C1=O` [Design D7.1, P*lvLPpI] (cyclo(IP[dNMeL][dV]LP[dP])), the “PAMPA_Papp_Avg (apparent permeability)” value amounted to 2.93 ×10⁻⁶ cm/s. As for `CC(C)C[C@@H]1NC(=O)[C@@H](CC(C)C)NC(=O)[C@H]2CCCN2C(=O)[C@@H]2CCCN2C(=O)[C@@H](CC(C)C)NC(=O)[C@@H](CC(C)C)N(C)C(=O)[C@@H]2CCCN2C1=O` [Design D7.5, LP*llPpl] (cyclo(LP[dNMeL][dL]P[dP][dL])), the “PAMPA_Papp_Avg (apparent permeability)” value came out at 6.64 ×10⁻⁶ cm/s.

Take `CC(C)C[C@@H]1NC(=O)[C@@H]2CCCN2C(=O)[C@H]2CCCN2C(=O)[C@H](CC(C)C)NC(=O)[C@H](C)N(C)C(=O)[C@H]2CCCN2C(=O)[C@@H](CC(C)C)NC1=O` [Design D7.6, lp*ALpPL] (cyclo(L[dL][dP][NMeA]L[dP]P)): the “PAMPA_Papp_Avg (apparent permeability)” value came out at 3.62 ×10⁻⁶ cm/s. As for `CC[C@H](C)[C@@H]1NC(=O)[C@H](Cc2ccccc2)N(C)C(=O)[C@H]2CCCN2C(=O)[C@H]([C@@H](C)CC)NC(=O)[C@H](C(C)C)NC(=O)[C@@H](C)NC(=O)[C@H]2CCCN2C1=O` [Design D7.9, VIp*FIpa] (cyclo(I[dP][NMeF]I[dP][dA]V)), the “PAMPA_Papp_Avg (apparent permeability)” value stood at 7.09 ×10⁻⁶ cm/s. Turning to `CC(C)C[C@@H]1NC(=O)[C@@H](CC(C)C)NC(=O)[C@H]2CCCN2C(=O)[C@H](CC(C)C)NC(=O)[C@@H](CC(C)C)NC(=O)[C@H](CC(C)C)NC(=O)[C@@H]2CCCN2C(=O)[C@@H](C)NC1=O` [Design D8.1, lLplLaPL] (cyclo(L[dA]PL[dL]L[dP][dL])), the “membrane permeability in PAMPA (in words)” value is “most permeable 8 residue design in PAMPA” and the “PAMPA_Papp_Avg (apparent permeability)” value came out at 6.94 ×10⁻⁶ cm/s. Consider `CC[C@@H](C)[C@H]1NC(=O)[C@@H](CC(C)C)NC(=O)C(C)(C)NC(=O)[C@@H]2CCCN2C(=O)[C@@H]([C@H](C)CC)NC(=O)[C@@H](CC(C)C)NC(=O)C(C)(C)NC(=O)[C@@H]2CCCN2C1=O` [Design D8.2, PBliPBLi] (cyclo([Aib][dL][dI]P[Aib][dL][dI]P)), for which the “PAMPA_Papp_Avg (apparent permeability)” value turned out to be 7.49 ×10⁻⁶ cm/s. On to `CC(C)C[C@@H]1NC(=O)[C@H]2CCCN2C(=O)[C@@H]2CCCN2C(=O)[C@H](CC(C)C)NC(=O)[C@@H](CC(C)C)NC(=O)[C@@H](C)N(C)C(=O)[C@@H](C)N(C)C(=O)[C@@H](C(C)C)NC1=O` [Design D8.6, LPpLv*a*al] (cyclo(LP[dP]L[dV][dNMeA][dNMeA][dL])), for which the “PAMPA_Papp_Avg (apparent permeability)” value was 3.35 ×10⁻⁶ cm/s. In the case of `CC[C@@H](C)[C@H]1NC(=O)[C@@H](CC(C)C)N(C)C(=O)[C@@H]2CCCN2C(=O)[C@@H]([C@H](C)CC)NC(=O)[C@@H](CC(C)C)NC(=O)[C@@H](CC(C)C)N(C)C(=O)[C@@H]2CCCN2C(=O)[C@@H](C(C)C)NC1=O` [Design D8.8, P*lliP*liv] (cyclo(P[dNMeL][dI][dV]P[dNMeL][dL][dI])), the “PAMPA_Papp_Avg (apparent permeability)” value amounted to 5.9 ×10⁻⁶ cm/s. Regarding `CC(C)C[C@@H]1C(=O)N[C@H](CC(C)C)C(=O)N2CCC[C@@H]2C(=O)N2CCC[C@@H]2C(=O)N(C)[C@@H](C)C(=O)N[C@H](Cc2ccccc2)C(=O)N[C@@H](C)C(=O)N(C)[C@@H](CC(C)C)C(=O)N1C` [Design D8.10, pp*AfA*L*ll] (cyclo(A[NMeL][dNMeL][dL][dP][dP][NMeA][dF])), the “PAMPA_Papp_Avg (apparent permeability)” value stood at 1.23 ×10⁻⁶ cm/s. Still for that read-out and setting: as for `CC[C@H](C)[C@@H]1NC(=O)[C@@H](C(C)C)NC(=O)[C@H](CC(C)C)N(C)C(=O)[C@H]2CCCN2C(=O)[C@H]2CCCN2C(=O)[C@H](C(C)C)NC(=O)[C@@H](CC(C)C)NC(=O)[C@H]2CCCN2C1=O` [Design D8.16, plVpp*LvI] (cyclo(I[dP][dL]V[dP][dP][NMeL][dV])), the figure is 2.16 ×10⁻⁶ cm/s; as for `CC[C@@H](C)[C@H]1NC(=O)[C@@H]2CCCN2C(=O)[C@@H](CC(C)C)N(C)C(=O)[C@@H](C(C)C)NC(=O)[C@@H]2CCCN2C(=O)[C@@H](CC(C)C)N(C)C(=O)[C@H](C)N(C)C(=O)[C@@H](C)NC1=O` [Design D8.18, ia*A*lPv*lP] (cyclo([NMeA][dNMeL]P[dV][dNMeL]P[dI][dA])), 1.04 ×10⁻⁶ cm/s; as for `CC(C)C[C@@H]1C(=O)N(C)[C@H](Cc2ccccc2)C(=O)N(C)[C@@H](CC(C)C)C(=O)N[C@H](C(C)C)C(=O)N[C@H](C)C(=O)N2CCC[C@@H]2C(=O)N2CCC[C@H]2C(=O)N[C@H](C)C(=O)N1C` [Design D8.20, Pa*l*f*Lvap] (cyclo([dA][dNMeL][dNMeF][NMeL][dV][dA][dP]P)), 1.08 ×10⁻⁶ cm/s. Consider `CC(C)C[C@@H]1NC(=O)[C@H]2CCCN2C(=O)[C@H](CC(C)C)N(C)C(=O)[C@@H](C(C)C)NC(=O)[C@H](CC(C)C)NC(=O)[C@H]2CCCN2C(=O)[C@H](CC(C)C)N(C)C(=O)[C@@H](C(C)C)NC1=O` [Design D8.21, v*LpLv*LpL] (cyclo(L[dV][NMeL][dP]L[dV][NMeL][dP])), for which the “membrane permeability in PAMPA (in words)” value is on record as “significant permeability”.

As for `CC(C)C[C@@H]1C(=O)N[C@@H](C(C)C)C(=O)N[C@@H](C)C(=O)N2CCC[C@H]2C(=O)N2CCC[C@@H]2C(=O)N[C@@H](C(C)C)C(=O)N[C@@H](C)C(=O)N(C)[C@@H](CC(C)C)C(=O)N1C` [Design D8.22, APpVA*L*lV] (cyclo(A[NMeL][dNMeL]VAP[dP]V)), the “PAMPA_Papp_Avg (apparent permeability)” value was 0.215 ×10⁻⁶ cm/s. Consider `CC(C)C[C@@H]1C(=O)N(C)[C@H](CC(C)C)C(=O)N[C@H](CC(C)C)C(=O)N[C@@H](C(C)C)C(=O)N2CCC[C@@H]2C(=O)N2CCC[C@H]2C(=O)N[C@H](CC(C)C)C(=O)N[C@@H](C(C)C)C(=O)N1C` [Design D8.23, lV*l*llVpP] (cyclo([dL]V[dNMeL][dNMeL][dL]V[dP]P)), for which the “PAMPA_Papp_Avg (apparent permeability)” value worked out at 1.28 ×10⁻⁶ cm/s. As for `CC(C)C[C@@H]1C(=O)N[C@H](C)C(=O)N(C)[C@H](CC(C)C)C(=O)N2CCC[C@@H]2C(=O)N[C@H](CC(C)C)C(=O)N[C@@H](C)C(=O)N[C@H](CC(C)C)C(=O)N2CCC[C@@H]2C(=O)N1C` [Design D8.25, lp*la*lplA] (cyclo(A[dL][dP][dNMeL][dA][dNMeL][dP][dL])), the “PAMPA_Papp_Avg (apparent permeability)” value came out at 0.824 ×10⁻⁶ cm/s.
